Values after ≈ are worked out from the molar mass of the structure shown.
Key:
Type in all cases: cell-based
[1] = test system: P. mirabilis IFO 3849; assay: MIC against standard strains (Table 1), P. mirabilis IFO 3849; conditions: Proteus mirabilis, IFO3849, Muller-Hinton agar, overnight 37° C., read-out: MIC (minimum growth inhibitory concentration)
Procedure: (§1) The minimum growth inhibitory concentration (MIC, μg/ml) of the compounds for each of the 25 standard laboratory strains (standard strains) shown in Table 1 was determined in accordance with the standard method of the Japan Chemotherapical Society (Chemotherapy, 29, 76-79 (1981) under "Re-revision of the measuring methods of minimum growth inhibitory concentration (MIC)").
(§2) That is, by using each test strain cultured overnight at 37° C. in a Muller-Hinton broth, there was prepared a bacterial solution with a cell density of 1×10^6 CFU/ml in the same broth. The bacterial solution was inoculated into the Muller-Hinton agar media each containing respectively one test agent (i.e., compound) and, after overnight incubation at 37° C., the minimum concentration that inhibited growth of the bacteria was determined and expressed as MIC.
(§3) Staphylococcus aureus 167 and Staphylococcus aureus 195 used in the test were MRSA. CTM (cefotiam) and FMOX (flomoxef) were used as the control agents.

[2] = test system: K. pneuminiae IFO 3317; assay: MIC against standard strains (Table 1), K. pneuminiae IFO 3317; conditions: Muller-Hinton agar, overnight 37° C., read-out: MIC (minimum growth inhibitory concentration)
Procedure: as §1, §2, §3

[3] = test system: E. cloacae Nek39; assay: MIC against standard strains (Table 1), E. cloacae Nek39; conditions: Enterobacter cloacae, Muller-Hinton agar, overnight 37° C., read-out: MIC (minimum growth inhibitory concentration)
Procedure: as §1, §2, §3

[4] = test system: B. subtilis ATCC 6633; assay: MIC against standard strains (Table 1), B. subtilis ATCC 6633; conditions: Bacillus subtilis, ATCC6633, Muller-Hinton agar, overnight 37° C., read-out: MIC (minimum growth inhibitory concentration)
Procedure: as §1, §2, §3

[5] = test system: E. cloacae ATCC 13407; assay: MIC against standard strains (Table 1), E. cloacae ATCC 13407; conditions: Enterobacter cloacae, ATCC13407, Muller-Hinton agar, overnight 37° C., read-out: MIC (minimum growth inhibitory concentration)
Procedure: as §1, §2, §3

[6] = test system: P. vulugaris OX-19; assay: MIC against standard strains (Table 1), P. vulugaris OX-19; conditions: Muller-Hinton agar, overnight 37° C., read-out: MIC (minimum growth inhibitory concentration)
Procedure: as §1, §2, §3

[7] = test system: S. aureus 195; assay: MIC against standard strains (Table 1), S. aureus 195 (MRSA); conditions: Staphylococcus aureus, Muller-Hinton agar, overnight 37° C., read-out: MIC (minimum growth inhibitory concentration)
Procedure: as §1, §2, §3

[8] = test system: A. faecalis ATCC 3750; assay: MIC against standard strains (Table 1), A. faecalis ATCC 3750; conditions: Alcaligenes faecalis, ATCC3750, Muller-Hinton agar, overnight 37° C., read-out: MIC (minimum growth inhibitory concentration)
Procedure: as §1, §2, §3

[9] = test system: S. aureus Smith; assay: MIC against standard strains (Table 1), S. aureus Smith; conditions: Staphylococcus aureus, Muller-Hinton agar, overnight 37° C., read-out: MIC (minimum growth inhibitory concentration)
Procedure: as §1, §2, §3

[10] = test system: E. coli JC-2; assay: MIC against standard strains (Table 1), E. coli JC-2; conditions: Escherichia coli, JC2, Muller-Hinton agar, overnight 37° C., read-out: MIC (minimum growth inhibitory concentration)
Procedure: as §1, §2, §3

[11] = test system: M. morganii IFO 3848; assay: MIC against standard strains (Table 1), M. morganii IFO 3848; conditions: Morganella morganii, IFO3848, Muller-Hinton agar, overnight 37° C., read-out: MIC (minimum growth inhibitory concentration)
Procedure: as §1, §2, §3

[12] = test system: K. pneuminiae No. 42; assay: MIC against standard strains (Table 1), K. pneuminiae No. 42; conditions: Muller-Hinton agar, overnight 37° C., read-out: MIC (minimum growth inhibitory concentration)
Procedure: as §1, §2, §3

[13] = test system: M. luteus ATCC 9341; assay: MIC against standard strains (Table 1), M. luteus ATCC 9341; conditions: Micrococcus luteus, ATCC9341, Muller-Hinton agar, overnight 37° C., read-out: MIC (minimum growth inhibitory concentration)
Procedure: as §1, §2, §3

[14] = test system: E. coli CSH2(RK1); assay: MIC against standard strains (Table 1), E. coli CSH2(RK1); conditions: Escherichia coli, read-out: MIC (minimum growth inhibitory concentration)
Procedure: as §1, §2, §3

[15] = test system: clinically isolated MRSA; assay: Antibacterial potency against clinically isolated MRSA (47 strains); conditions: Staphylococcus aureus; for MIC50: concentration inhibiting growth of 50% of 47 clinically isolated MRSA strains; for MIC90: concentration inhibiting growth of 90% of 47 clinically isolated MRSA strains
Procedure: A test on the antibacterial potency against clinically isolated MRSA was conducted in the following way.
That is, using 47 strains of clinically isolated MRSA, MIC was determined for each of the test strains in accordance with the standard method of the Japan Chemotherapical Society as in Test Example 1, and the minimum growth inhibitory concentration which inhibited growth of 50% of the strains tested was expressed as MIC50 (μg/ml), and the minimum growth inhibitory concentration which inhibited growth of 90% of the strains tested was expressed as MIC90 (μg/ml).
In this test, FMOX was used as the control agent.

[16] = test system: S. marcescens No. 16-2; assay: MIC against standard strains (Table 1), S. marcescens No. 16-2; conditions: Serratia marcescens, NO.162, Muller-Hinton agar, overnight 37° C., read-out: MIC (minimum growth inhibitory concentration)
Procedure: as §1, §2, §3

[17] = test system: S. marcescens IAM 1184; assay: MIC against standard strains (Table 1), S. marcescens IAM 1184; conditions: Serratia marcescens, IAM1184, Muller-Hinton agar, overnight 37° C., read-out: MIC (minimum growth inhibitory concentration)
Procedure: as §1, §2, §3

[18] = test system: E. coli CSH2(RE45); assay: MIC against standard strains (Table 1), E. coli CSH2(RE45); conditions: Escherichia coli, read-out: MIC (minimum growth inhibitory concentration)
Procedure: as §1, §2, §3

[19] = test system: S. aureus 209p JC-1; assay: MIC against standard strains (Table 1), S. aureus 209p JC-1; conditions: Staphylococcus aureus, Muller-Hinton agar, overnight 37° C., read-out: MIC (minimum growth inhibitory concentration)
Procedure: as §1, §2, §3

[20] = test system: S. epidemidis IAM 1296; assay: MIC against standard strains (Table 1), S. epidemidis IAM 1296; conditions: Muller-Hinton agar, overnight 37° C., read-out: MIC (minimum growth inhibitory concentration)
Procedure: as §1, §2, §3

[21] = test system: A. calcoaceticos T59; assay: MIC against standard strains (Table 1), A. calcoaceticos T59; conditions: Muller-Hinton agar, overnight 37° C., read-out: MIC (minimum growth inhibitory concentration)
Procedure: as §1, §2, §3

[22] = test system: P. aeruginosa NCTC 10490; assay: MIC against standard strains (Table 1), P. aeruginosa NCTC 10490; conditions: Pseudomonas aeruginosa, NCTC10490, Muller-Hinton agar, overnight 37° C., read-out: MIC (minimum growth inhibitory concentration)
Procedure: as §1, §2, §3

[23] = test system: P. aeruginosa AKR17; assay: MIC against standard strains (Table 1), P. aeruginosa AKR17; conditions: Pseudomonas aeruginosa, Muller-Hinton agar, overnight 37° C., read-out: MIC (minimum growth inhibitory concentration)
Procedure: as §1, §2, §3

[24] = test system: C. freundii ATCC 8090; assay: MIC against standard strains (Table 1), C. freundii ATCC 8090; conditions: Citrobacter freundii, ATCC8090, Muller-Hinton agar, overnight 37° C., read-out: MIC (minimum growth inhibitory concentration)
Procedure: as §1, §2, §3

[25] = test system: S. aureus 167; assay: MIC against standard strains (Table 1), S. aureus 167 (MRSA); conditions: Staphylococcus aureus, Muller-Hinton agar, overnight 37° C., read-out: MIC (minimum growth inhibitory concentration)
Procedure: as §1, §2, §3

[26] = test system: P. cepacia CN 9113; assay: MIC against standard strains (Table 1), P. cepacia CN 9113; conditions: Burkholderia cepacia, CN9113, Muller-Hinton agar, overnight 37° C., read-out: MIC (minimum growth inhibitory concentration)
Procedure: as §1, §2, §3

Row | SMILES | MIC [1] [µg/mL] | MIC [2] [µg/mL] | MIC [3] [µg/mL] | MIC [4] [µg/mL] | MIC [5] [µg/mL] | MIC [6] [µg/mL] | MIC [7] [µg/mL] | MIC [8] [µg/mL] | MIC [9] [µg/mL] | MIC [10] [µg/mL] | MIC [11] [µg/mL] | MIC [12] [µg/mL] | MIC [13] [µg/mL] | MIC [14] [µg/mL] | MIC50 [15] [µg/mL] | MIC90 [15] [µg/mL] | MIC [16] [µg/mL] | MIC [17] [µg/mL] | MIC [18] [µg/mL] | MIC [19] [µg/mL] | other results
1 | NC(=O)c1cc[n+](C/C=C/C2=C(C(=O)[O-])N3C(=O)[C@@H](NC(=O)/C(=N\O)c4csc(N)n4)[C@H]3SC2)cc1 [Compound 19, 7β-[2-(2-aminothiazol-4-yl)-2-syn-hydroxyiminoacetamido]-3-[(E)-3-(4-carbamoylpyridinio)-1-propenyl]-3-cephem-4-carboxylate] | 0.2 (≈ 0.378 µM) | 0.05 (≈ 0.0944 µM) | 12.5 (≈ 23.6 µM) | 0.2 (≈ 0.378 µM) | 0.39 (≈ 0.736 µM) | 0.1 (≈ 0.189 µM) | 3.13 (≈ 5.91 µM) | 1.56 (≈ 2.95 µM) | 0.2 (≈ 0.378 µM) | 0.1 (≈ 0.189 µM) | 0.05 (≈ 0.0944 µM) | 0.1 (≈ 0.189 µM) | 0.05 (≈ 0.0944 µM) | 0.2 (≈ 0.378 µM) | 2.92 (≈ 5.51 µM) | 17.4 (≈ 32.8 µM) | 12.5 (≈ 23.6 µM) | 0.1 (≈ 0.189 µM) | 0.1 (≈ 0.189 µM) | 0.1 (≈ 0.189 µM) | MIC [20]: 0.05 µg/mL (≈ 0.0944 µM); MIC [21]: 3.13 µg/mL (≈ 5.91 µM); MIC [22]: 1.56 µg/mL (≈ 2.95 µM); MIC [23]: > 100 µg/mL; MIC [24]: 0.05 µg/mL (≈ 0.0944 µM); MIC [25]: 100 µg/mL (≈ 189 µM); MIC [26]: > 100 µg/mL
2 | CO/N=C(\C(=O)N[C@@H]1C(=O)N2C(C(=O)[O-])=C(/C=C/C[n+]3cccc(NC(N)=O)c3)CS[C@H]12)c1csc(N)n1 [Compound 6, 7β-[2-(2-aminothiazol-4-yl)-2-syn-methoxyiminoacetamido]-3-[(E)-3-(3-ureidopyridinio]-1-propenyl]-3-cephem-4-carboxylate] | 0.025 (≈ 0.0448 µM) | 0.025 (≈ 0.0448 µM) | 3.13 (≈ 5.6 µM) | 0.2 (≈ 0.358 µM) | 0.2 (≈ 0.358 µM) | 0.025 (≈ 0.0448 µM) | 12.5 (≈ 22.4 µM) | 0.39 (≈ 0.698 µM) | 0.39 (≈ 0.698 µM) | 0.025 (≈ 0.0448 µM) | 0.025 (≈ 0.0448 µM) | 0.1 (≈ 0.179 µM) | 0.025 (≈ 0.0448 µM) | 0.025 (≈ 0.0448 µM) | 13.8 (≈ 24.7 µM) | 67 (≈ 120 µM) | 0.78 (≈ 1.4 µM) | 0.025 (≈ 0.0448 µM) | 0.1 (≈ 0.179 µM) | 0.39 (≈ 0.698 µM) | MIC [20]: 0.2 µg/mL (≈ 0.358 µM); MIC [21]: 6.25 µg/mL (≈ 11.2 µM); MIC [22]: 0.39 µg/mL (≈ 0.698 µM); MIC [23]: > 100 µg/mL; MIC [24]: 0.025 µg/mL (≈ 0.0448 µM); MIC [25]: 50 µg/mL (≈ 89.5 µM); MIC [26]: 50 µg/mL (≈ 89.5 µM)
